Reference: PubChem BioAssay AID248 (DTP/NCI, 2004)
Toxic doses and inconclusive results are not listed. No stated cut-off is given here; in the data, active means T/C of 150% or more; inactive means T/C below 125%.

System: L1210 leukemia ip in BDF1 mice, survival T/C
Experiment: NCI In Vivo Anticancer Drug Screen. Data for tumor model L1210 Leukemia (intraperitoneal) in B6D2F1 (BDF1) mice
Settings: endpoint: mean survival time, higher = longer survival
In short: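 Survival endpoint. Drug-treated group vs vehicle group, expressed as T divided by C. Tumor passaged by transplantation.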

[1] = dose: 100.0 mg/kg/injection, schedule: Q01DX001 (ip), vehicle: saline with Tween-80
[2] = dose: 200.0 mg/kg/injection, schedule: Q01DX001 (ip), vehicle: saline with Tween-80
[3] = dose: 400.0 mg/kg/injection, schedule: Q01DX001 (ip), vehicle: saline with Tween-80
[4] = dose: 100.0 mg/kg/injection, schedule: Q04DX003 (ip), vehicle: saline with Tween-80
[5] = dose: 200.0 mg/kg/injection, schedule: Q04DX003 (ip), vehicle: saline with Tween-80
[6] = dose: 400.0 mg/kg/injection, schedule: Q04DX003 (ip), vehicle: saline with Tween-80

Measured: T/C

COC(=O)c1ccc(N(C)C/C(CNc2nc(NC(C)=O)nc(SCc3ccccc3)c2[N+](=O)[O-])=N/O)cc1
inactive: [1] 92 % of control | [2] 86 % of control | [3] 96 % of control

CCC(=O)c1ccc(OC(=O)Nc2ccc(C)c(NC(=O)Oc3ccc(C(=O)CC)cc3)c2)cc1
inactive: dose: 100.0 mg/kg/injection, schedule: Q01DX009 (ip), vehicle: other 107 % of control | dose: 200.0 mg/kg/injection, schedule: Q01DX009 (ip), vehicle: other 100 % of control

CCCN(CCC)CCSC(=S)NCCOC
inactive: dose: 4.0 mg/kg/injection, schedule: Q01DX001 (sc), vehicle: olive oil, sesame oil, peanut oil 110 % of control | dose: 8.0 mg/kg/injection, schedule: Q01DX001 (sc), vehicle: olive oil, sesame oil, peanut oil 112 % of control | dose: 16.0 mg/kg/injection, schedule: Q01DX001 (sc), vehicle: olive oil, sesame oil, peanut oil 116 % of control | dose: 32.0 mg/kg/injection, schedule: Q01DX001 (sc), vehicle: olive oil, sesame oil, peanut oil 118 % of control | dose: 50.0 mg/kg/injection, schedule: Q01DX001 (ip), vehicle: olive oil, sesame oil, peanut oil 96 % of control | dose: 50.0 mg/kg/injection, schedule: Q01DX009 (ip), vehicle: acetone 93 % of control | dose: 100.0 mg/kg/injection, schedule: Q01DX001 (ip), vehicle: acetone 110 % of control | dose: 100.0 mg/kg/injection, schedule: Q01DX001 (ip), vehicle: olive oil, sesame oil, peanut oil 92 % of control | dose: 100.0 mg/kg/injection, schedule: Q01DX009 (ip), vehicle: acetone 101 % of control | dose: 200.0 mg/kg/injection, schedule: Q01DX001 (ip), vehicle: acetone 104 % of control | dose: 200.0 mg/kg/injection, schedule: Q01DX001 (ip), vehicle: olive oil, sesame oil, peanut oil 103 % of control | dose: 400.0 mg/kg/injection, schedule: Q01DX001 (ip), vehicle: olive oil, sesame oil, peanut oil 88 % of control

OC(c1ccccc1)(c1ccccc1)c1ccc(F)cc1
inactive: dose: 100.0 mg/kg/injection, schedule: Q01DX009 (ip), vehicle: saline with Tween-80 102 % of control | [4] 92 % of control | dose: 200.0 mg/kg/injection, schedule: Q01DX009 (ip), vehicle: saline with Tween-80 101 % of control | [5] 100 % of control | dose: 400.0 mg/kg/injection, schedule: Q01DX009 (ip), vehicle: saline with Tween-80 89 % of control | [6] 87 % of control

CCCCCCCCNc1ccc(Cl)cc1
inactive: dose: 100.0 mg/kg/injection, schedule: Q01DX001 (ip), vehicle: saline + alcohol 91 % of control | dose: 200.0 mg/kg/injection, schedule: Q01DX001 (ip), vehicle: saline + alcohol 102 % of control | dose: 400.0 mg/kg/injection, schedule: Q01DX001 (ip), vehicle: saline + alcohol 98 % of control

C=CCNC(=O)OCC
inactive: [4] 100 % of control | [5] 95 % of control | [6] 100 % of control

NC(=O)NC(CC(=O)O)C(=O)O (centres undefined)
inactive: [4] 117 % of control | [5] 101 % of control | [6] 92 % of control

O=C1c2ccccc2-c2ccc(NC(=O)C(F)(F)F)cc21
inactive: [1] 92 % of control | [2] 90 % of control | [3] 92 % of control

C[N+](C)(C)CC(=O)[O-]
inactive: dose: 100.0 mg/kg/injection, schedule: Q01DX009 (ip), vehicle: saline 108 % of control | dose: 100.0 mg/kg/injection, schedule: Q04DX003 (ip), vehicle: saline 103 % of control | dose: 200.0 mg/kg/injection, schedule: Q01DX009 (ip), vehicle: saline 91 % of control | dose: 200.0 mg/kg/injection, schedule: Q04DX003 (ip), vehicle: saline 94 % of control

CCN1CCN(Cc2ccccc2)C(CCl)C1 (centres undefined)
inactive: dose: 12.5 mg/kg/injection, schedule: Q01DX009 (ip), vehicle: Klucel (hydroxypropylcellulose) (HPC) 96 % of control | dose: 12.5 mg/kg/injection, schedule: Q04DX003 (ip), vehicle: Klucel (hydroxypropylcellulose) (HPC) 100 % of control | dose: 25.0 mg/kg/injection, schedule: Q01DX009 (ip), vehicle: Klucel (hydroxypropylcellulose) (HPC) 102 % of control | dose: 25.0 mg/kg/injection, schedule: Q04DX003 (ip), vehicle: Klucel (hydroxypropylcellulose) (HPC) 96 % of control | dose: 50.0 mg/kg/injection, schedule: Q04DX003 (ip), vehicle: Klucel (hydroxypropylcellulose) (HPC) 93 % of control
